System: male Sprage Dawley rats
Experiment: L-NAME induced hypertension model, arterial blood pressure by tail-cuff method (Example 11)
Assay type: in vivo
Settings: rat, L-NAME 40 mg/Kg in drinking water, oral gavage 100 mg/Kg (group 6, positive control)
Experimental: Thirty-six male Sprage Dawley rats (weight aprox. 200 at the beginning of the experiment) were obtained from Harlan Interfauna Iberica SA (Barcelona, Spain) and maintained during all the experiment in the installations of the animalary service at the University of Murcia. The animals were randomly distributed into six experimental groups of 6 rats each one, housed under standard conditions of lighting (day/night cycles of 12 h), temperature (22±2° C.) and humidity (60%).
During the setting period and the experimental periods, rats were feed on a solid standard diet for rats (Panlab). Drinking water and food were available ad libitum. After an setting period of 7 days, treatments according the experimental design were started.
In order to determine the effect of fortified extra virgin olive oil (evoo added with the olive extract according to the present invention) N-nitro-L-arginine-methylester (L-NAME) induced hypertension model was used.
Arterial blood pressure was measured with a periodicity according the above cronogramme, by the tail-cuff method. Before the measurement, rats were kept at 37° C. for 10 min to make the pulsations of the tail artery detectable. […] The arterial blood pressure measurements were performed at the same time of the day in order to avoid any influence of the circadian cycle.

C[C@H](CS)C(=O)N1CCC[C@H]1C(=O)O [Captopril]
systolic blood pressure: significant reduction of the blood pressure values
